Patent publication US20250129430A1, “HIGH ATP-AFFINITY PROTEIN AS THERAPEUTIC TARGET FOR INTRACTABLE CANCER MOLECULAR SUBTYPES AND INHIBITOR THEREOF” (VeraVerse Co., Ltd., priority 2021, published 2025)

How the values were obtained:
Assay in all cases: Cell viability drug screen, 12-point dose-response AUC
Type in all cases: cell-based, human
[1] = system: FU97; design: Average Area Under the Viability Curve (AUC), AUC norm value: scale not given here; conditions: FU97 cells; 72 hours
How it was run: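 Trapezoidal AUC of a 12-point, DMSO-normalized dose-response curve. Luminescent viability was measured after 72 h of exposure at 37° C to half-log serial dilutions (0.5% DMSO control), dosed 24 h after plating FU97 cells at 5×10^3 per well.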

[2] = system: NCC59; conditions: NCC59 cells; 72 hours
How it was run: (§1)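 Twelve half-log concentrations per compound were tested on gastric cancer cells with an EMT phenotype (5×10^3/well, dosed 24 h post-seeding). Viability after 72 h was quantified via luminescence relative to 0.5% DMSO, and repeats were averaged.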

[3] = system: NCC19; conditions: NCC19 cells; 72 hours
How it was run: as §1

[4] = system: MKN74; conditions: MKN74 cells; 72 hours
How it was run: (§2)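 Luminescent viability readings, taken 15 min after reagent addition at room temperature, were normalized to the 0.5% DMSO control to build 12-point dose-response curves. Trapezoidal integration gave the AUC. Cells had been plated at 5×10^3 per well and then exposed to half-log dilutions for 72 h.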

[5] = system: YCC11; conditions: YCC11 cells (SEM subtype); 72 hours
How it was run: as §1

[6] = system: SNU216; conditions: SNU216 cells (non-SEM subtype); 72 hours
How it was run: as §2

[7] = system: SNU484; conditions: SNU484 cells (SEM subtype); 72 hours
How it was run: as §1

[8] = system: YCC3; conditions: YCC3 cells; 72 hours
How it was run: as §1

[9] = system: SNU668; conditions: SNU668 cells (SEM subtype); 72 hours
How it was run: as §1

[10] = system: SNU601; conditions: SNU601 cells; 72 hours
How it was run: as §1

[11] = system: NCC20; conditions: NCC20 cells; 72 hours
How it was run: as §1

[12] = system: KATO3; conditions: KATO3 cells; 72 hours
How it was run: as §1

[13] = system: SNU16; conditions: SNU16 cells; 72 hours
How it was run: as §1

[14] = system: YCC2; conditions: YCC2 cells; 72 hours
How it was run: as §1

[15] = system: NCC24; conditions: NCC24 cells; 72 hours
How it was run: as §1

[16] = system: MKN45; conditions: MKN45 cells (non-SEM subtype); 72 hours
How it was run: as §2

[17] = system: OCUM1; conditions: OCUM1 cells; 72 hours
How it was run: as §1

[18] = system: AGS; conditions: AGS cells (non-SEM subtype); 72 hours
How it was run: as §2

[19] = system: SNU719; conditions: SNU719 cells; 72 hours
How it was run: as §2

[20] = system: SNU1; conditions: SNU1 cells; 72 hours
How it was run: as §1

[21] = system: SK4; conditions: SK4 cells (SEM subtype); 72 hours
How it was run: as §1

[22] = system: Hs746T; conditions: Hs746T cells (SEM subtype); 72 hours
How it was run: as §1

[23] = system: SNU1750; conditions: SNU1750 cells (SEM subtype); 72 hours
How it was run: as §1

[24] = system: MKN1; conditions: MKN1 cells; 72 hours
How it was run: as §1

[25] = system: SNU1967; conditions: SNU1967 cells; 72 hours
How it was run: as §1

[26] = system: NCI_N87; conditions: NCI_N87 cells; 72 hours
How it was run: as §1

[27] = system: SNU638; conditions: SNU638 cells; 72 hours
How it was run: as §1

[28] = system: SNU620; conditions: SNU620 cells; 72 hours
How it was run: as §1

[29] = system: MKN28; conditions: MKN28 cells; 72 hours
How it was run: as §1

Row | SMILES | Average Area Under the Viability Curve (AUC), AUC norm value [1] | Average Area Under the Viability Curve (AUC), AUC norm value [2] | Average Area Under the Viability Curve (AUC), AUC norm value [3] | Average Area Under the Viability Curve (AUC), AUC norm value [4] | Average Area Under the Viability Curve (AUC), AUC norm value [5] | Average Area Under the Viability Curve (AUC), AUC norm value [6] | Average Area Under the Viability Curve (AUC), AUC norm value [7] | Average Area Under the Viability Curve (AUC), AUC norm value [8] | Average Area Under the Viability Curve (AUC), AUC norm value [9] | Average Area Under the Viability Curve (AUC), AUC norm value [10] | Average Area Under the Viability Curve (AUC), AUC norm value [11] | Average Area Under the Viability Curve (AUC), AUC norm value [12] | Average Area Under the Viability Curve (AUC), AUC norm value [13] | Average Area Under the Viability Curve (AUC), AUC norm value [14] | Average Area Under the Viability Curve (AUC), AUC norm value [15] | Average Area Under the Viability Curve (AUC), AUC norm value [16] | Average Area Under the Viability Curve (AUC), AUC norm value [17] | Average Area Under the Viability Curve (AUC), AUC norm value [18] | Average Area Under the Viability Curve (AUC), AUC norm value [19] | Average Area Under the Viability Curve (AUC), AUC norm value [20] | also measured
1 | Cc1ccc(S(=O)(=O)/C=C/C#N)cc1 [BAY 11-7082 (BAY 11-7821), BAY 11-7082] | 0.0931 | 1.031 | −0.07527 | 0.03633 | −1.538 | 0.3865 | −0.4504 | 0.7116 | 0.8081 | 0.7218 | −0.8287 | 0.7229 | −0.6715 | 0 | 0.8357 | 0.194 | 0.7491 | −0.5085 | 1.377 | 1.33 | Average Area Under the Viability Curve (AUC), AUC norm value [21]: −0.7659; Average Area Under the Viability Curve (AUC), AUC norm value [22]: −0.5796; Average Area Under the Viability Curve (AUC), AUC norm value [23]: −1.012; Average Area Under the Viability Curve (AUC), AUC norm value [24]: −0.3248; Average Area Under the Viability Curve (AUC), AUC norm value [25]: −0.8028; Average Area Under the Viability Curve (AUC), AUC norm value [26]: 0.5073; Average Area Under the Viability Curve (AUC), AUC norm value [27]: −1.497; Average Area Under the Viability Curve (AUC), AUC norm value [28]: −0.1923; Average Area Under the Viability Curve (AUC), AUC norm value [29]: −0.1987
2 | CO[C@H]1C(=O)[C@]2(C)[C@@H](OC)C[C@H]3OC[C@@]3(OC(C)=O)[C@H]2[C@H](OC(=O)c2ccccc2)[C@]2(O)C[C@H](OC(=O)[C@H](O)[C@@H](NC(=O)OC(C)(C)C)c3ccccc3)C(C)=C1C2(C)C [Cabazitaxel (Jevtana), Cabazitaxel] | 0.3061 | 3.939 | 0 | 0.4319 | −1.189 | 2.335 | −0.7278 | 3.384 | 0.4109 | −1.688 | −0.8551 | 4.95 | −2.759 | 0.2073 | −1.077 | 2.138 | 3.086 | −2.201 | 6.209 | −3.451 | Average Area Under the Viability Curve (AUC), AUC norm value [21]: −0.7298; Average Area Under the Viability Curve (AUC), AUC norm value [22]: 1.085; Average Area Under the Viability Curve (AUC), AUC norm value [23]: 0.6058; Average Area Under the Viability Curve (AUC), AUC norm value [24]: −1.266; Average Area Under the Viability Curve (AUC), AUC norm value [25]: 1.228; Average Area Under the Viability Curve (AUC), AUC norm value [26]: −1.712; Average Area Under the Viability Curve (AUC), AUC norm value [27]: −0.1608; Average Area Under the Viability Curve (AUC), AUC norm value [28]: −3.501; Average Area Under the Viability Curve (AUC), AUC norm value [29]: −2.213
3 | O=C(/C=C/c1cccnc1)NCCCCC1CCN(C(=O)c2ccccc2)CC1 [APO866 (FK866), APO866] | −3.149 | 0.7919 | −4.01 | −6.53 | −2.215 | −5.897 | −6.823 | 1.423 | −3.304 | 4.976 | 2.35 | 1.553 | −4.562 | 1.331 | −0.07585 | 0.6191 | 0.949 | 0 | 1.275 | 0.9726 | Average Area Under the Viability Curve (AUC), AUC norm value [21]: 0.7403; Average Area Under the Viability Curve (AUC), AUC norm value [22]: −4.382; Average Area Under the Viability Curve (AUC), AUC norm value [23]: −3.767; Average Area Under the Viability Curve (AUC), AUC norm value [24]: −5.502; Average Area Under the Viability Curve (AUC), AUC norm value [25]: −3.653; Average Area Under the Viability Curve (AUC), AUC norm value [26]: 0.8343; Average Area Under the Viability Curve (AUC), AUC norm value [27]: 0.6032; Average Area Under the Viability Curve (AUC), AUC norm value [28]: 0.3488; Average Area Under the Viability Curve (AUC), AUC norm value [29]: −6.855
